The text below walks through data of ChEMBL document CHEMBL1146072, “Structure-activity relationship studies on N3-substituted willardiine derivatives acting as AMPA or kainate receptor antagonists” (J Med Chem, 2006).

Assay [1] concerns the target Glutamate receptor ionotropic, AMPA (Rattus norvegicus, UniProt P19490+P19491+P19492+P19493).
Description: Antagonist activity against AMPA receptor expressed in motoneurones by inhibition of fDR-VRP in the neonatal rat spinal cord
Assay [2] concerns the target Glutamate receptor ionotropic, kainate 2 (Rattus norvegicus, UniProt P42260). Put plainly: Displacement of [3H]kainate from rat GLUK6 expressed in HEK293 cells. Format: cell-based. A general note: In a radioligand displacement assay an active substance lowers the binding of a labelled ligand.
The nature of assay [3]: Induction of calcium influx in HEK293 cells expressing human GLUK5/GLUK2 by FLIPR assay.
Assay [4] in a line: Induction of calcium influx in HEK293 cells expressing human GLUK5/GLUK6 by FLIPR assay.
Assay [5] addresses Glutamate NMDA receptor (Rattus norvegicus) (UniProt P35439+Q00959+Q00960+Q00961+Q62645+Q8VHN2+Q9R1M7). Put plainly: Activity against NMDA-induced depolarization of neonatal rat motoneurons expressing NMDA receptor at 50 uM. The class given is protein-complex assay.
Assay [6] addresses T1, Glutamate receptor 1 (Homo sapiens, UniProt P42261). Put plainly: Inhibition of glutamate-induced calcium influx in HEK293 cells expressing human GLUA1 up to 100 uM. The class given is functional, cell-based.
The target of assay [7] is Glutamate receptor ionotropic, kainate 1 (Homo sapiens, UniProt P39086). Briefly: Inhibition of glutamate-induced calcium influx in HEK293 cells expressing human GLUK5 by FLIPR assay. The class given is functional, cell-based.
The nature of assay [8]: Inhibition of glutamate-induced calcium influx in HEK293 cells expressing human GLUK5/GLUK6 by FLIPR assay. Format: functional, cell-based.
In assay [9] the target is Metabotropic glutamate receptor 5 (Rattus norvegicus) (UniProt P31424). Briefly: Activity against DHPG-induced depolarization of neonatal rat motoneurons expressing mGlu5 receptor at 50 uM.
Assay [10] in a line: Inhibition of glutamate-induced calcium influx in HEK293 cells expressing human GLUK5/GLUK2 by FLIPR assay. Format: functional, cell-based.
Assay [11] addresses Metabotropic glutamate receptor 1 (Rattus norvegicus) (UniProt P23385). Put plainly: Activity against DHPG-induced depolarization of neonatal rat motoneurons expressing mGlu1 receptor at 50 uM.
In assay [12] the target is Glutamate receptor 2 (Homo sapiens) (UniProt P42262). Briefly: Inhibition of glutamate-induced calcium influx in HEK293 cells expressing human GLUA2 up to 100 uM. The class given is functional, cell-based.
The next assay has as its target Glutamate receptor 4 (Homo sapiens, UniProt P48058). Briefly: Inhibition of glutamate-induced calcium influx in HEK293 cells expressing human GLUA4 up to 100 uM. Format: functional, cell-based.
Assay [13] concerns the target T1, Glutamate receptor 1. Briefly: Inhibition of glutamate-induced calcium influx in HEK293 cells expressing human GLUA1. Format: functional, cell-based.

pEC50, pIC50, pKd, pKi: −log10 of the molar value. Active and inactive are the calls of the source. The rule behind the calls is not given here.

Sequence of Glutamate receptor ionotropic, kainate 2 (P42260 whole entry): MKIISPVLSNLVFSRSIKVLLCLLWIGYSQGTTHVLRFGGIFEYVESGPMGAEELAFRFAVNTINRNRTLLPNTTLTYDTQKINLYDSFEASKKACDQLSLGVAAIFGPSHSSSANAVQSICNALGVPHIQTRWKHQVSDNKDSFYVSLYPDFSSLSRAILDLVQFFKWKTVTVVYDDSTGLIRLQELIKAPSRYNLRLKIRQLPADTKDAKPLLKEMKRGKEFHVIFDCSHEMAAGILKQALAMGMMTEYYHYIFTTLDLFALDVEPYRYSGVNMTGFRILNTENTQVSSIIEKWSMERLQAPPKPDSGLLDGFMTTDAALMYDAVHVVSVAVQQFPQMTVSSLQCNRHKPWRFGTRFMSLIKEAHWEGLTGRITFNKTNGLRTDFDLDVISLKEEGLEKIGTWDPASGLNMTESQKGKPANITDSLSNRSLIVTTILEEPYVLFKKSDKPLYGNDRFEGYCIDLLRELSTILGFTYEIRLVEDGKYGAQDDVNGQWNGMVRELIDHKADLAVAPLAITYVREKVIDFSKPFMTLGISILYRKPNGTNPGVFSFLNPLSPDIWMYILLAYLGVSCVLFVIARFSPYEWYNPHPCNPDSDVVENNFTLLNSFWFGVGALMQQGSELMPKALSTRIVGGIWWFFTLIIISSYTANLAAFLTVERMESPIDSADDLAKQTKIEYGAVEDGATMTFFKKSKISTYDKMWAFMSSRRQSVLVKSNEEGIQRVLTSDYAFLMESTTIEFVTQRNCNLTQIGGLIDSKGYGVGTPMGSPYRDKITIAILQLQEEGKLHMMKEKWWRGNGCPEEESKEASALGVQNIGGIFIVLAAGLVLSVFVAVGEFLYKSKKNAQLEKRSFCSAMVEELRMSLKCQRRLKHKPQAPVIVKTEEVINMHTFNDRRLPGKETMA
T1 sequence (P42261 whole entry): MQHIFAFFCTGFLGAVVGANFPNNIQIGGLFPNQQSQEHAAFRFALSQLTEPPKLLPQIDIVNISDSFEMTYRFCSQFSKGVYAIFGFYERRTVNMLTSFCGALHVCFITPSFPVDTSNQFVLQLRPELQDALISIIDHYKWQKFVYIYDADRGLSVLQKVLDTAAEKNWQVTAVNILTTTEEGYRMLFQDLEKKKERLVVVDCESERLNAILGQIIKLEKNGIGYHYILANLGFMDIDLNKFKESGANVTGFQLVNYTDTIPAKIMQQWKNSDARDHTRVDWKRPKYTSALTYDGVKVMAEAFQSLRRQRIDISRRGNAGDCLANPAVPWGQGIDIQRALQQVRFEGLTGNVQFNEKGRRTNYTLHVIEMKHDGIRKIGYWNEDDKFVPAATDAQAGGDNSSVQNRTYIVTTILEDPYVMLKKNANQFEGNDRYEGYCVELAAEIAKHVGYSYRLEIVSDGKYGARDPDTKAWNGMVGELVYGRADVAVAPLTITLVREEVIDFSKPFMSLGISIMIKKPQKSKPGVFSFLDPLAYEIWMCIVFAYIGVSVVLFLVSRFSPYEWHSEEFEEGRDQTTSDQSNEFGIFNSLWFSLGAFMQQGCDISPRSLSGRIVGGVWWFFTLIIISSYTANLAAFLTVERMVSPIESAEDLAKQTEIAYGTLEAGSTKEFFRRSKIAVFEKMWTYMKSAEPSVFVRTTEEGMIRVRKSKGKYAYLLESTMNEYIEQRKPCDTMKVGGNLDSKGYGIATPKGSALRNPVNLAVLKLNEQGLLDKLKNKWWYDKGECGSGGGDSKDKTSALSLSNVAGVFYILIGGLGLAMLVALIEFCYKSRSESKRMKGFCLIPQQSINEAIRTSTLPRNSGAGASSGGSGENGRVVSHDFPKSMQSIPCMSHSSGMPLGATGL
Sequence of Glutamate receptor 4 (P48058 whole entry): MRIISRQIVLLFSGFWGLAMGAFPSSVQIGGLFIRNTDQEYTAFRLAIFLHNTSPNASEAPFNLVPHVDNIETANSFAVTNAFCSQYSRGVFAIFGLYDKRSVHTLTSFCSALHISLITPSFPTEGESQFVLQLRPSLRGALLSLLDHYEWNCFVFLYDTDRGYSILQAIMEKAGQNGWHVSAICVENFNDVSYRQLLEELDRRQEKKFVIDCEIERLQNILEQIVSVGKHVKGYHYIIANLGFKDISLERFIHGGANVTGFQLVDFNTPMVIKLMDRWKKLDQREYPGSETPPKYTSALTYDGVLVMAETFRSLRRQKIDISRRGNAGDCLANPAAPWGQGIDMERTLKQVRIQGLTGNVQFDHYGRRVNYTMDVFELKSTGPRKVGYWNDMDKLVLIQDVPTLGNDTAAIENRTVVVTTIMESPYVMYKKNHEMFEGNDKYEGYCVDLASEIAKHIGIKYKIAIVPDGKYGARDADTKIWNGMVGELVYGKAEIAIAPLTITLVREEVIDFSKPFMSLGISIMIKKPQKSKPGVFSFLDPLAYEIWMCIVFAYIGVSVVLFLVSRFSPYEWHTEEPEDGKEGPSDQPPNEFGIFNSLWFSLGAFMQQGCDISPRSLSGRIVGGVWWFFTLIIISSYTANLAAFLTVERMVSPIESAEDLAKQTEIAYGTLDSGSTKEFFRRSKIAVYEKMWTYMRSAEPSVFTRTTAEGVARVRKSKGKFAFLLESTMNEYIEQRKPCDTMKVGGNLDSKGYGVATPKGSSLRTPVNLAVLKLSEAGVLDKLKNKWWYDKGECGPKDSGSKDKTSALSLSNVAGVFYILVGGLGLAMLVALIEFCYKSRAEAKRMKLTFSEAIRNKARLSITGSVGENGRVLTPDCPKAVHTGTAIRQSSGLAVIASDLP
Sequence of Glutamate receptor 2 (Homo sapiens) (P42262 whole entry): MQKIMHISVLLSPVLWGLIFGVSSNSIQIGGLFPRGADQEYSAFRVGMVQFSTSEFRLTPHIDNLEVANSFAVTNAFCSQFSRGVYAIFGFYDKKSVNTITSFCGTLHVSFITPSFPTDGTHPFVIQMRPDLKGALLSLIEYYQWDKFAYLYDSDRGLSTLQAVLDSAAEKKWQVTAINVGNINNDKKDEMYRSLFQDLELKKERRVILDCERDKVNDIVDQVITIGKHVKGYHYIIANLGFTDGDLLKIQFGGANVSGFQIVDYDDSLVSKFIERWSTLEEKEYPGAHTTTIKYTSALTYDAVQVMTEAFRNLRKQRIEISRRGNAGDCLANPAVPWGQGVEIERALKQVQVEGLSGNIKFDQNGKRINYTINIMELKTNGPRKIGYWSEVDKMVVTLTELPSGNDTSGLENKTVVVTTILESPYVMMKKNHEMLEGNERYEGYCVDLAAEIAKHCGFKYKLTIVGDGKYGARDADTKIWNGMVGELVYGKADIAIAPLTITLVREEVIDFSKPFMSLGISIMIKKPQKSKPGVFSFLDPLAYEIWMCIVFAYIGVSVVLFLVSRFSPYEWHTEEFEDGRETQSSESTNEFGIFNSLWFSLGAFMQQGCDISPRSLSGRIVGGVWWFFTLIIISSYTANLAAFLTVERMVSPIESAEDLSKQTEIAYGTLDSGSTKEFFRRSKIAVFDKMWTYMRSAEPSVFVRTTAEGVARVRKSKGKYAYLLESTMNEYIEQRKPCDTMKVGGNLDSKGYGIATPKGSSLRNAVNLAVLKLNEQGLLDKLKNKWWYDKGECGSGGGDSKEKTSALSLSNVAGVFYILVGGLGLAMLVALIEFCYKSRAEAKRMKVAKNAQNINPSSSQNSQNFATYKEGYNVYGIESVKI
Sequence of Glutamate receptor ionotropic, kainate 1 (P39086 whole entry): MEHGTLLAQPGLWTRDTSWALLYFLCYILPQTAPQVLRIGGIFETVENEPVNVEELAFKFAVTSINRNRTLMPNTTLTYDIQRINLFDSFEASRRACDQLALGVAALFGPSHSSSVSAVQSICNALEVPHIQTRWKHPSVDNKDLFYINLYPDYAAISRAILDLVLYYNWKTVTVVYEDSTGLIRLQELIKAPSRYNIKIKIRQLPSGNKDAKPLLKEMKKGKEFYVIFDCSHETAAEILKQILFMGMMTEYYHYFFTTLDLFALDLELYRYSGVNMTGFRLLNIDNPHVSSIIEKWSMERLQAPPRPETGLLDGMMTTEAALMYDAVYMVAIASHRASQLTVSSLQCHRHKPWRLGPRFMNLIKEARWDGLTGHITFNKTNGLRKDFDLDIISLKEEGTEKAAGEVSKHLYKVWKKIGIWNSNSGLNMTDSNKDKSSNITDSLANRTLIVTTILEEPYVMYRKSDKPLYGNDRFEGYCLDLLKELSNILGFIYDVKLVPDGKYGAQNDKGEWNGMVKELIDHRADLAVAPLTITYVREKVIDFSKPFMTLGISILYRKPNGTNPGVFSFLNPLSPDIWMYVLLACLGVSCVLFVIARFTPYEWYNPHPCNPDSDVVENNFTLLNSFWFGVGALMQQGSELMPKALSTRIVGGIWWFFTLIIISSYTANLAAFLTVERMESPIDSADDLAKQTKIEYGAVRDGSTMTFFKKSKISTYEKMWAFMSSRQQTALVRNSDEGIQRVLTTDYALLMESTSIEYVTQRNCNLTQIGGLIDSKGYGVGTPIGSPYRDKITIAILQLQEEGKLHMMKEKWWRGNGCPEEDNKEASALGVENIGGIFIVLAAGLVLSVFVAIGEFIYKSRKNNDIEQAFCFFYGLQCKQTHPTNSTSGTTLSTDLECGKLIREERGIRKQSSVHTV

For orientation: pIC50 means −log10 of the IC50, conventionally taken in molar units. In turn, `N[C@@H](Cn1cc(I)c(=O)n(CCc2nn[nH]n2)c1=O)C(=O)O` showed a pIC50 in assay [1] of 5.43.

What is called pKi is the Ki on a negative log10 scale, so that one unit is a factor of ten. Turning to `N[C@@H](Cn1ccc(=O)n(Cc2ccc(S(=O)(=O)O)cc2)c1=O)C(=O)O`, the pIC50 in assay [1] was 4.31. For the same compound, in assay [2], the pKi is less than 4.00.

`N[C@@H](Cn1ccc(=O)n(Cc2ccoc2C(=O)O)c1=O)C(=O)O` had a pIC50 in [1] of 4.93. This compound gave a pKi in assay [2] of less than 4.00.

As a reminder, the pEC50 is the negative decadic logarithm of the EC50, by convention in mol/L. Regarding `N[C@@H](CCC(=O)O)C(=O)O` [GLUTAMIC ACID], the pEC50 was 4.46 in [3] and 4.57 in assay [4].

In the case of `N[C@@H](Cn1ccc(=O)n(CCC(=O)O)c1=O)C(=O)O`, the pKi in assay [2] is less than 3.00.

The compound `NC(Cn1ccc(=O)n(Cc2ccc(P(=O)(O)O)cc2)c1=O)C(=O)O` (racemic) had a pIC50 in assay [1] of 3.97. In addition, the pKi in assay [2] was less than 3.00.

Regarding `N[C@@H](Cn1ccc(=O)n(Cc2ccccc2P(=O)(O)O)c1=O)C(=O)O`, the pIC50 in [1] was less than 4.00.

On to `N[C@@H](Cn1ccc(=O)n(CCc2nnn[nH]2)c1=O)C(=O)O`, for which, in [1], the pIC50 is 5.16. The same compound showed a negative-log Ki (pKi) in assay [2] of less than 4.00.

One may read the pKd as −log10 of the Kd, conventionally taken in molar units. With `N[C@@H](Cn1ccc(=O)n(Cc2ccsc2C(=O)O)c1=O)C(=O)O`, the result (in assay [5]; on Glutamate receptor 1 [6]; in [9]; in assay [11]; in assay [12]; at Glutamate receptor 4) was inactive. Further, the pIC50 in assay [7] was 6.17; in assay [8], 6.21; in [1], 4.51; in assay [10] it was 5.92. The pKd in assay [1] was 4.15. In addition, the pKi in [2] is less than 4.00.

`N[C@H](Cn1ccc(=O)n(Cc2ccsc2C(=O)O)c1=O)C(=O)O` had a pIC50 in assay [1] of less than 4.00. The compound also showed a pKi in assay [2] of less than 3.00.

In [1], `N[C@@H](Cn1ccc(=O)n(Cc2nn[nH]n2)c1=O)C(=O)O` showed a pIC50 of 4.34. Also, the pKi in assay [2] is less than 4.00.

`N[C@@H](Cn1ccc(=O)n(Cc2ccc(-c3nn[nH]n3)cc2)c1=O)C(=O)O` had a negative-log IC50 (pIC50) in [1] of 4.29.

With `NS(=O)(=O)c1cccc2c1c([N+](=O)[O-])cc1nc(O)c(O)nc12` [NBQX], the values for the pIC50 (on Glutamate receptor 1 [13]; in [8]; in assay [10]) were 5.22, 4.55 and 4.30, respectively.
